# In PubChem BioAssay (NCI):
#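 1) Cells in 96-well plates. 2) Compound, 48 h, 5 concentrations. 3) Linear interpolation between surrounding doses. 4) Unreached endpoint = highest concentration. TGI marks complete inhibition of growth.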
# What was measured:
# Test in all cases: DTP human tumour cell line panel, 48 h
# CAKI-1 renal = tested on: CAKI-1 renal
# SNB-19 CNS = tested on: SNB-19 CNS
# SF-268 CNS = tested on: SF-268 CNS
# MALME-3M melanoma = tested on: MALME-3M melanoma
# M14 melanoma = tested on: M14 melanoma
# HCT-116 colon = tested on: HCT-116 colon
# HL-60(TB) leukemia = tested on: HL-60(TB) leukemia
# HCC-2998 colon = tested on: HCC-2998 colon
# 786-0 renal = tested on: 786-0 renal
# HS 578T breast = tested on: HS 578T breast
# NCI/ADR-RES ovarian = tested on: NCI/ADR-RES ovarian
# SW-620 colon = tested on: SW-620 colon
# A498 renal = tested on: A498 renal
# SK-MEL-5 melanoma = tested on: SK-MEL-5 melanoma
# EKVX NSCLC = tested on: EKVX NSCLC
# NCI-H522 lung = tested on: NCI-H522 lung
# SF-295 CNS = tested on: SF-295 CNS
SMILES,TGI (CAKI-1 renal),TGI (SNB-19 CNS),TGI (SF-268 CNS),TGI (MALME-3M melanoma),TGI (M14 melanoma),TGI (HCT-116 colon),TGI (HL-60(TB) leukemia),TGI (HCC-2998 colon),TGI (786-0 renal),TGI (HS 578T breast),TGI (NCI/ADR-RES ovarian),TGI (SW-620 colon),TGI (A498 renal),TGI (SK-MEL-5 melanoma),TGI (EKVX NSCLC),TGI (NCI-H522 lung),TGI (SF-295 CNS)
CC(C)(C)N1C(=O)c2ccccc2C1(O)C(F)(F)F (centres undefined),> 100 µM,> 100 µM,> 100 µM,> 100 µM,> 100 µM,> 100 µM,> 100 µM,> 100 µM,> 100 µM,97.8 µM,> 100 µM,> 100 µM,> 100 µM,> 100 µM,> 100 µM,> 100 µM,> 100 µM
CN(C)C(=S)N1C(=S)N(c2ccccc2)C(=Nc2ccccc2)C1=Nc1ccccc1,> 100 µM,> 100 µM,> 100 µM,> 100 µM,–,> 100 µM,> 100 µM,> 100 µM,> 100 µM,> 100 µM,> 100 µM,> 100 µM,> 100 µM,> 100 µM,> 100 µM,> 100 µM,> 100 µM
COc1cccc(C(=O)Nc2c3ccccc3nc3ccccc23)c1OC,> 100 µM,> 100 µM,> 100 µM,> 100 µM,> 100 µM,> 100 µM,> 100 µM,> 100 µM,> 100 µM,> 100 µM,> 100 µM,> 100 µM,–,> 100 µM,> 100 µM,89.9 µM,> 100 µM
CCSC1=N/C(=C\c2ccco2)C(NN)=N1,> 50 µM,> 50 µM,> 50 µM,> 50 µM,> 50 µM,> 50 µM,> 50 µM,–,> 50 µM,> 50 µM,> 50 µM,> 50 µM,> 50 µM,> 50 µM,> 50 µM,> 50 µM,> 50 µM
COc1ccc(/C=N/n2c(=O)[nH]c3ccccc3c2=O)cc1,> 100 µM,> 100 µM,> 100 µM,–,> 100 µM,> 100 µM,–,–,> 100 µM,> 100 µM,> 100 µM,> 100 µM,> 100 µM,> 100 µM,> 100 µM,–,> 100 µM
C=C[C@]1(O)CCC[C@]2(C)C(=O)CCC12C (some centres undefined),–,> 100 µM,> 100 µM,> 100 µM,> 100 µM,> 100 µM,> 100 µM,> 100 µM,> 100 µM,> 100 µM,> 100 µM,> 100 µM,> 100 µM,> 100 µM,> 100 µM,> 100 µM,> 100 µM
Cc1nn2c(=O)c([N+](=O)[O-])c(/C=C/c3ccco3)nc2s1,> 100 µM,> 100 µM,> 100 µM,> 100 µM,> 100 µM,> 100 µM,96.2 µM,> 100 µM,> 100 µM,89.1 µM,> 100 µM,> 100 µM,–,90.1 µM,63.7 µM,> 100 µM,> 100 µM
CC1=CC=C2c3ccccc3C=CN2C(=O)C1,> 100 µM,> 100 µM,> 100 µM,> 100 µM,> 100 µM,> 100 µM,41.2 µM,> 100 µM,> 100 µM,> 100 µM,> 100 µM,> 100 µM,–,46.1 µM,> 100 µM,> 100 µM,> 100 µM
Cc1ccc2c3c(cnc2n1)C(=O)OCCN3C,> 100 µM,> 100 µM,> 100 µM,–,> 100 µM,> 100 µM,> 100 µM,> 100 µM,> 100 µM,> 100 µM,> 100 µM,> 100 µM,> 100 µM,> 100 µM,> 100 µM,> 100 µM,> 100 µM
O=C1C=CC(=O)c2c1cc([N+](=O)[O-])c1ccoc21,3.54 µM,39.6 µM,> 65.1 µM,–,11.3 µM,12.5 µM,8.72 µM,41.6 µM,3.35 µM,> 60.1 µM,> 70.8 µM,> 100 µM,30 µM,31.3 µM,41.1 µM,4.4 µM,35.8 µM
O=C(NO)c1ccc(OCc2cccc(Cl)c2)cc1,37.5 µM,> 100 µM,38.2 µM,–,> 45.8 µM,14.4 µM,20.8 µM,24.4 µM,19.1 µM,> 96 µM,> 29.8 µM,> 100 µM,20 µM,> 100 µM,30.2 µM,19.2 µM,35.2 µM
N=c1oc2c(Br)cc(Br)cc2cc1C(=O)Nc1ccccn1,> 100 µM,> 100 µM,> 100 µM,> 100 µM,> 100 µM,> 100 µM,> 100 µM,> 100 µM,> 100 µM,> 100 µM,> 100 µM,> 100 µM,> 100 µM,> 100 µM,> 100 µM,> 100 µM,–
Cc1[nH]n(C2=NCCN2)c(=O)c1C,> 100 µM,> 100 µM,> 100 µM,> 100 µM,> 100 µM,> 100 µM,> 100 µM,–,> 100 µM,> 100 µM,> 100 µM,> 100 µM,> 100 µM,> 100 µM,> 100 µM,> 100 µM,> 100 µM
Cc1nnc2sc(Cl)nn12,43.6 µM,> 100 µM,–,85.6 µM,28.1 µM,26.2 µM,–,31.6 µM,86.8 µM,> 100 µM,> 100 µM,16.6 µM,> 100 µM,25.2 µM,43.9 µM,23.9 µM,36.2 µM
COc1ccc2c(c1)CCN=C2Cc1ccccc1CCCl,63.2 µM,> 100 µM,> 100 µM,–,46.1 µM,> 100 µM,48.6 µM,42.1 µM,> 100 µM,> 100 µM,64.9 µM,> 100 µM,> 100 µM,36.6 µM,> 100 µM,58.4 µM,> 100 µM
COc1ccc2oc(=Nc3ccccc3)c(C(N)=O)cc2c1,> 100 µM,> 45.1 µM,> 100 µM,> 100 µM,> 100 µM,> 100 µM,> 100 µM,> 100 µM,> 100 µM,> 70.1 µM,> 100 µM,> 100 µM,–,> 100 µM,> 100 µM,> 100 µM,> 100 µM

SMILES,TGI (CAKI-1 renal),TGI (SNB-19 CNS),TGI (SF-268 CNS),TGI (MALME-3M melanoma),TGI (M14 melanoma),TGI (HCT-116 colon),TGI (HL-60(TB) leukemia),TGI (HCC-2998 colon),TGI (786-0 renal),TGI (HS 578T breast),TGI (NCI/ADR-RES ovarian),TGI (SW-620 colon),TGI (A498 renal),TGI (SK-MEL-5 melanoma),TGI (EKVX NSCLC),TGI (NCI-H522 lung),TGI (SF-295 CNS)
CC1(C)Oc2ccc3c(=O)c(-c4ccccc4)c(-c4ccccc4)oc3c2C1C(=O)O (centres undefined),> 100 µM,–,> 100 µM,> 100 µM,> 100 µM,> 100 µM,–,> 100 µM,> 100 µM,> 100 µM,> 100 µM,–,> 100 µM,> 100 µM,> 100 µM,> 100 µM,> 100 µM
Cc1n[n+](CC(=O)c2ccccc2)c2sc(N)nn12,> 100 µM,> 100 µM,> 100 µM,> 100 µM,> 100 µM,> 100 µM,–,–,> 100 µM,> 100 µM,> 100 µM,> 100 µM,> 100 µM,> 100 µM,> 100 µM,> 100 µM,> 100 µM
CCOC(=O)[C@@H]1OC(c2ccccc2)O[C@H]1C(=O)OCC,–,> 100 µM,> 100 µM,> 100 µM,> 100 µM,> 100 µM,–,–,> 100 µM,> 100 µM,> 100 µM,> 100 µM,> 100 µM,> 100 µM,> 100 µM,–,> 100 µM
Cc1ccc(/C=N/Nc2nc3ccccc3s2)s1,> 100 µM,> 100 µM,> 100 µM,> 100 µM,> 100 µM,> 100 µM,> 100 µM,> 100 µM,> 100 µM,> 100 µM,> 100 µM,> 100 µM,–,> 100 µM,> 100 µM,> 100 µM,> 100 µM
Cn1c2c(c3ccccc31)CCN1OCC=C[C@@H](C(=O)O)[C@@H]21,> 100 µM,> 100 µM,> 100 µM,> 100 µM,> 100 µM,> 100 µM,> 100 µM,> 100 µM,> 100 µM,> 100 µM,> 100 µM,> 100 µM,> 100 µM,> 100 µM,> 100 µM,> 100 µM,–
COc1ccc(C2=Nn3c(nc4sc(C)c(C)c4c3=O)SC2)cc1,> 100 µM,–,> 100 µM,> 100 µM,–,> 100 µM,> 100 µM,> 100 µM,> 100 µM,> 100 µM,> 100 µM,> 100 µM,> 100 µM,> 100 µM,> 100 µM,> 100 µM,> 100 µM
Cc1c(-c2ccccc2)[nH]c2ccc(Cl)cc2c1=O,3.82 µM,> 100 µM,> 100 µM,48.7 µM,> 100 µM,52 µM,> 100 µM,> 100 µM,> 100 µM,> 100 µM,> 100 µM,> 100 µM,–,56.3 µM,> 100 µM,> 100 µM,> 100 µM
CC1(C)C=Cc2c(cc3oc4ccc5c(c4c(=O)c3c2O)C=CC(C)(C)O5)O1,> 100 µM,> 100 µM,> 100 µM,> 100 µM,> 100 µM,> 100 µM,–,> 100 µM,> 100 µM,> 100 µM,> 100 µM,> 100 µM,> 100 µM,> 100 µM,> 100 µM,> 100 µM,> 100 µM
O=C(NCCc1ccccc1)[C@H]1CCCC[C@@H]1CCO,> 100 µM,–,> 100 µM,–,> 100 µM,> 100 µM,> 100 µM,> 100 µM,> 100 µM,> 100 µM,> 100 µM,> 100 µM,> 100 µM,> 100 µM,> 100 µM,> 100 µM,> 100 µM
O=C1c2sc(-c3ccc(F)cc3)cc2-n2cccc21,34.5 µM,39.6 µM,52.1 µM,> 100 µM,> 100 µM,58.7 µM,–,> 100 µM,32.2 µM,62.7 µM,> 100 µM,> 100 µM,62.8 µM,> 100 µM,> 100 µM,> 100 µM,93.9 µM
Cc1cccc(NC(=S)Nc2ccc([N+](=O)[O-])cc2)n1,> 100 µM,> 100 µM,> 100 µM,–,> 100 µM,> 100 µM,> 100 µM,> 100 µM,> 100 µM,> 100 µM,> 100 µM,> 100 µM,> 100 µM,> 100 µM,> 100 µM,–,> 100 µM
O=C1CCCC2=C1CC1=C(CCCC1=O)N2c1ccccc1C(=O)O,> 100 µM,> 100 µM,> 100 µM,–,> 100 µM,–,> 100 µM,> 100 µM,> 100 µM,> 100 µM,> 100 µM,> 100 µM,> 100 µM,> 100 µM,> 100 µM,–,–
Cc1ccccc1N=CN(C)C,> 100 µM,> 100 µM,> 100 µM,> 100 µM,> 100 µM,> 100 µM,39 µM,–,> 100 µM,> 100 µM,> 100 µM,–,> 100 µM,43.6 µM,> 100 µM,94.2 µM,> 100 µM
CC(=O)OCC1OC(n2c(C#N)cc(=O)[nH]c2=O)CC1OC(C)=O (centres undefined),> 100 µM,> 100 µM,> 100 µM,> 100 µM,> 100 µM,> 100 µM,> 100 µM,–,> 100 µM,> 100 µM,> 100 µM,> 100 µM,> 100 µM,> 100 µM,> 100 µM,> 100 µM,> 100 µM
O=c1[nH]c(=O)n(C2OC(CO)C(O)C2O)c2ncc(-c3ccc(-c4ccccc4)cc3)nc12 (centres undefined),> 20 µM,> 20 µM,> 20 µM,> 20 µM,–,> 20 µM,–,> 20 µM,> 20 µM,> 20 µM,> 20 µM,> 20 µM,> 20 µM,> 20 µM,> 20 µM,> 20 µM,> 20 µM
